Laboratory results taken from patent US11433012B2, “Peptides for increasing melanin in melanocytes” (Conopco, Inc., priority 2017, dated 2022).
Peptide text beside a SMILES is read from it.

Legend:
[1] = system: Neonatal foreskin primary human epidermal melanocytes; test: Cell viability by the calcein method; assay type: cell-based
Procedure: (§1) All test compounds were purchased from SIGMA-ALDRICH as stocks of 10 mM in 100% DMSO. They were tested at various concentrations in cell culture (see below). Forskolin (SIGMA Cat. #F6886) and IBMX (SIGMA Cat. #I5879) were used as reference comparators, as they have been reported to increase melanin content. Neonatal foreskin primary human epidermal melanocytes were procured from Cascade Biologicals (labelled passage P0). Melanocytes were maintained in Medium 254CF (Cascade Cat. #M-254CF-500) supplemented with human melanocyte growth supplement (Cascade; Cat. #S-002-5), hereafter referred to as MGM. Cells were maintained at 37° C. in a humidified incubator with 5% CO2 atmosphere.
(§2) 50,000 cells were seeded in 24 well plate in MGM; after 24 hours, cultures were treated with various concentrations of the test materials and left undisturbed for a further period of 72 hours. Comparative vehicle controls of 0.25% (v/v) DMSO were also set up in parallel, simultaneously. At the end of the incubation period, cell viability was determined using the calcein method.
Briefly, cell culture spent media was removed and cells washed once with 0.4 ml of 1×PBS—Ca—Mg solution. Fresh 1 μM calcein-AM was added (0.2 ml/well), including to control wells without cells. Plates were covered with aluminium foil and incubated for 30 minutes. at 37° C. in the regular CO2 incubator. Calcein fluorescence was then measured (λmax 490 nm and λmax 520 nm) in TECAN® M1000 Infinite series plate reader.
(§3) Calcein fluorescence values were ratio converted in 0 to 100 scale (% viability), with 100 representing the value of the 0.25% DMSO sample. % Melanin content was calculated as the ratio between OD405nm value of any sample to that of DMSO reference sample. Normalized melanin content value was then calculated as 100*(% Melanin Content)/(% Cellular viability).

[2] = system: Neonatal foreskin primary human epidermal melanocytes; test: Melanin content assay (OD405 nm of cell lysate); assay type: cell-based; conditions: for % Melanin / OD405 nm / % Increase in Melanin / Normalized melanin content / Normalized melanin content at 0.25 µM: 72 hours; for Normalized melanin content at 0.25 µM: Homo sapiens, Melanocyte, read-out: Normalized melanin content, 100*(% Melanin Content)/(% Cellular viability); for Increase in melanin content of melanocytes (in words): data of Table 2
Procedure: as §1, §2
After calcein fluorescence readings were obtained, cells were drained and added fresh 125 μl of 1N NaOH (in 10% DMSO) per well. Cells were lysed by resuspension and incubation (60° C./1 hour). Then this lysate was transferred to a fresh […] and measured OD405 nm in a TECAN M1000 plate reader (estimate of relative melanin content).
as §3
The percentage Increase in melanin content was estimated as [(Normalized melanin content)−100]

Tyrosinase = biological target: T1, Tyrosinase (Homo sapiens, UniProt P14679); test: Tyrosinase assay; assay type: biochemical; conditions: 0.25 μM
T1 sequence (P14679 19-529): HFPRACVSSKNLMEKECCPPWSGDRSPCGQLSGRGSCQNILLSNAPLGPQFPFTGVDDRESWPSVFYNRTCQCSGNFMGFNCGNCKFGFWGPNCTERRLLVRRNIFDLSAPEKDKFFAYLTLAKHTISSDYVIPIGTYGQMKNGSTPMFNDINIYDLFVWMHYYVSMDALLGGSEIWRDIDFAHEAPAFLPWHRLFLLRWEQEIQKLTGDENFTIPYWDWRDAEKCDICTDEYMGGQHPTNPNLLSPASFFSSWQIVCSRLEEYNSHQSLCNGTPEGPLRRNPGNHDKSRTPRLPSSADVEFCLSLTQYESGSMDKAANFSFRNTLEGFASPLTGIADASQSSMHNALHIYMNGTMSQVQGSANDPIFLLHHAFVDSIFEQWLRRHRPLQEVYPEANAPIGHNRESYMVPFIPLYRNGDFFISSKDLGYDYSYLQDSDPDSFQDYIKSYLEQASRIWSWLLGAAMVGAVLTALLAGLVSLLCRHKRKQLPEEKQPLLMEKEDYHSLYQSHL

[3] = 0.25 μM, relative to DMSO control
[4] = 0.25 μM, normalized melanin content minus 100

SMILES | % Viability ([1]; human, 72 h, 0.25 μM) | % Viability ([1]; human, 72 h, 3.125 μM) | % Viability ([1]; human, 72 h, 6.25 μM) | % Viability ([1]; human, 72 h, 12.5 μM) | % Viability ([1]; human, 72 h, 25 μM) | % Melanin [2, 3] | OD405 nm ([2]; 0.25 μM, control 0.113) | % Increase in Melanin [2, 4] | % Increase in Melanin ([2]; 3.125 μM) | % Melanin ([2]; 3.125 μM) | % Increase in Melanin ([2]; 12.5 μM) | % Melanin ([2]; 12.5 μM) | Normalized melanin content ([2]; 12.5 μM) | OD405 nm ([2]; 12.5 μM, control 0.165) | % Increase in Melanin ([2]; 25 μM) | % Melanin ([2]; 25 μM) | Normalized melanin content ([2]; 25 μM) | OD405 nm ([2]; 25 μM, control 0.165) | Normalized melanin content at 0.25 µM ([2]; 0.25 μM) | % increase in Tyrosinase activity (Tyrosinase) | further results
O=C(N[C@@H](CO)C(=O)N[C@@H](Cc1ccc(O)cc1)C(=O)OCc1ccccc1)OCc1ccccc1 [Compound 1, Benzyl (2S)-2-[((2S)-2-{[(benzyloxy)carbonyl]amino}-3-hydroxypropanoyl)amino]-3-(4-hydroxyphenyl)propanoate.] (HELM PEPTIDE1{[O=C(OCc1ccccc1)[*:2]].S.Y.[c1ccc(CO[*:1])cc1]}$$$$V2.0) | 107% | 91.0% | 95.5% | 88.7% | 90.0% | 135.4% | 0.153 | 26.5% | 17.9% | 107.3% | 33.3% | 118.2% | 133.3 | 0.195 | 34.0% | 120.6% | 134.0 | 0.199 | 126% | 3.5% | Normalized melanin content ([2]; 3.125 μM): 117.9; OD405 nm ([2]; 3.125 μM, control 0.165): 0.177; % Increase in Melanin ([2]; 6.25 μM): 20.6%; % Melanin ([2]; 6.25 μM): 115.2%; Normalized melanin content ([2]; 6.25 μM): 120.6; OD405 nm ([2]; 6.25 μM, control 0.165): 0.190
CSCC[C@H](NC(=O)OCc1ccccc1)C(=O)N[C@@H](Cc1c[nH]c2ccccc12)C(=O)O [Compound 3, (2S)-2-{[(2S)-2-{[(benzyloxy)carbonyl]amino}-4-(methylthio)butanoyl]amino}-3-(1H-indol-3-yl)propanoic acid] (HELM PEPTIDE1{[O=C(OCc1ccccc1)[*:2]].M.W}$$$$V2.0) | 99% |  |  |  |  | 106.2% | 0.120 | 7.3% |  |  |  |  |  |  |  |  |  |  | 107% | 1.8% | Increase in melanin content of melanocytes (in words) [2]: not
C=C[C@@]1(C)CC(=O)[C@]2(O)[C@@]3(C)[C@@H](O)CCC(C)(C)[C@@H]3[C@H](O)[C@H](OC(C)=O)[C@@]2(C)O1 [Forskolin, reference compound] |  |  |  |  |  |  |  |  |  |  |  |  |  |  |  |  |  |  |  |  | % Viability ([1]; 2.5 μM, 72 hours): 95.6%; % Viability ([1]; 5 μM, 72 hours): 94.8%; % Viability ([1]; 10 μM, 72 hours): 90.5%; % Increase in Melanin ([2]; 2.5 μM): 16.6%; % Melanin ([2]; 2.5 μM): 111.5%; Normalized melanin content ([2]; 2.5 μM): 116.6; OD405 nm ([2]; 2.5 μM, control 0.165): 0.184; % Increase in Melanin ([2]; 5 μM): 29.2%; % Melanin ([2]; 5 μM): 122.5%; Normalized melanin content ([2]; 5 μM): 129.2; OD405 nm ([2]; 5 μM, control 0.165): 0.202; % Increase in Melanin ([2]; 10 μM): 36.7%; % Melanin ([2]; 10 μM): 123.7%; Normalized melanin content ([2]; 10 μM): 136.7; OD405 nm ([2]; 10 μM, control 0.165): 0.204
CC(C)Cn1c(=O)n(C)c(=O)c2[nH]cnc21 [IBMX, 3-isobutyl-1-methylxanthine, reference compound] |  |  |  | 100.1% | 95.2% |  |  |  |  |  | 16.6% | 116.7% | 116.6 | 0.193 | 24.8% | 118.8% | 124.8 | 0.196 |  |  | % Viability ([1]; human, 72 h, 50 μM): 91.0%; % Increase in Melanin ([2]; 50 μM): 28.2%; % Melanin ([2]; 50 μM): 116.7%; Normalized melanin content ([2]; 50 μM): 128.2; OD405 nm ([2]; 50 μM, control 0.165): 0.193
CC(C)[C@H](NC(=O)OCc1ccccc1)C(=O)N[C@@H](Cc1ccc(O)cc1)C(N)=O [Compound 2, Benzyl (1S)-1-({[(1S)-2-amino-1-(4-hydroxybenzyl)-2-oxoethyl]amino}carbonyl)-2-methylpropylcarbamate] (HELM PEPTIDE1{[O=C(OCc1ccccc1)[*:2]].V.Y.[am]}$$$$V2.0) | 81% | 90.5% | 99.8% | 95.8% | 92.5% | 110.6% | 0.125 | 36.5% | 23.2% | 111.5% | 26.5% | 121.2% | 126.5 | 0.200 | 42.2% | 131.5% | 142.2 | 0.217 | 136% | 2.0% | % Viability ([1]; human, 72 h, 1.5 μM): 91.3%; % Viability ([1]; human, 72 h, 50 μM): 100.6%; % Increase in Melanin ([2]; 1.5 μM): 16.9%; % Melanin ([2]; 1.5 μM): 106.7%; Normalized melanin content ([2]; 1.5 μM): 116.9; OD405 nm ([2]; 1.5 μM, control 0.165): 0.176; Normalized melanin content ([2]; 3.125 μM): 123.2; OD405 nm ([2]; 3.125 μM, control 0.165): 0.184; % Increase in Melanin ([2]; 6.25 μM): 14.7%; % Melanin ([2]; 6.25 μM): 114.5%; Normalized melanin content ([2]; 6.25 μM): 114.7; OD405 nm ([2]; 6.25 μM, control 0.165): 0.189; % Increase in Melanin ([2]; 50 μM): 25.8%; % Melanin ([2]; 50 μM): 126.6%; Normalized melanin content ([2]; 50 μM): 125.8; OD405 nm ([2]; 50 μM, control 0.165): 0.209; Increase in melanin content of melanocytes (in words) [2]: substantial increase in melanin content; Extent of increase in melanin content versus reference molecules (in words) ([2]; data of Table 3): comparable to known standard reference molecules (Forskolin and IBMX)
C[C@@H](O)[C@H](NC(=O)OCc1ccccc1)C(=O)N[C@@H](Cc1ccc(O)cc1)C(N)=O [Compound 4, Benzyl (1S,2R)-1-({[(1S)-2-amino-1-(4-hydroxybenzyl)-2-oxoethyl]amino}carbonyl)-2-hydroxypropylcarbamate.] (HELM PEPTIDE1{[O=C(OCc1ccccc1)[*:2]].T.Y.[am]}$$$$V2.0) | 110% |  |  |  |  | 102.7% | 0.116 | −6.6% |  |  |  |  |  |  |  |  |  |  | 93.4% | 0.8% | 
